# Source: patent US12234221B2, “Pyridine carboxamide compounds for inhibiting NAV1.8” (Lieber Institute, Inc., priority 2018, dated 2025)
# Target: T1, human Nav1.8 (hNav1.8) ion channel (Homo sapiens, UniProt Q9Y5Y9)
# T1 construct: expressed in transfected cells; host or cells: HEK293
# Experiment: Nav1.8 channel inhibition, estimated IC50 (one or more of: fluorescence inhibition assay, PatchXpress, IonFlux HT automated patch clamp)
# Type: cell-based
# Settings: HEK293 cells stably expressing hNav1.8; method used per compound not stated; read-out: Activity range (estimated IC50)
# Protocol: The ability of pyridine carboxamide derivatives exemplified above to inhibit the Nav1.8 channel was determined using one or more of the methods described below.
# HEK Nav1.8 β1/β2 Stably Expressing Cell Line
# A HEK293 cell line stably expressing the human Nav1.8 (hNav1.8) ion channel with β1/β2 subunits was constructed. The cell line is suitable for IC50 determination in fluorescence and electrophysiological based assays. It is also suitable to form mechanism of action pharmacology studies in electrophysiological assays. HEK293 Nav 1.8 cells are grown as adherent monolayers in DMEM/high glucose media, 10% fetal bovine serum, Na pyruvate (2 mM), Hepes (10 mM) with selection agents G418 (400 mg/L) and puromycin (0.5 mg/L) at 37 degrees C., 10% CO2.
# Nav 1.8 Fluorescence Inhibition Assay
# Compounds were made up to or supplied as a 10-mM stock solution using DMSO as the vehicle. Concentration-response curves were generated using a Matrix multichannel pipettor. Compound source plates were made by diluting 10 mM compound stocks to create 500 μM (100×) solutions in DMSO in 96-well v-bottom plates. Compounds were then serially diluted in 100% DMSO to generate a 5 point, 4-fold dilution scheme dose response curve. 2 μL of the 100× dose response curves was then added to preincubation and stimulation assay plates. 100 μL of pre-incubation buffer and 200 μL of stimulation buffer were then added to the plates resulting in a final assay test concentration range of 5 μM to 0.02 μM with a final DMSO concentration of 1%.
# On the day of assay, plates were washed to remove cell culture media using 2K EBSS buffer (135 mM NaCl, 2 mM KCl, 5 mM Glucose, 2 mM CaCl2), 1 mM MgCl2, 10 mM HEPES, pH 7.4). The Na-sensitive fluorescent dye, Asante Natrium Green-2 (ANG-2) is incubated for 60 min to allow equilibration and then washed with 2K EBSS. Plates are the transferred to a fluorescence plate reader (FLIPR™, Molecular Devices) for fluorescence measurement using an excitation wavelength of 490 nm and an emission wavelength of 565 nm. Compounds are pre-incubated at for 5 min at final test concentration in the presence of ouabain (30 μM) to inhibit Na+ efflux through Na+/K+ exchanger. Following the pre-incubation phase, hNav1.8 channels are stimulated with 10 μM of the pyrethroid deltamethrin to prevent channel inactivation. The assay was run for 15 min with vehicle and 30 μM tetracaine serving as negative and positive controls, respectively. The peak change in fluorescence relative to negative and positive control wells was calculated and fit with a logistic equation to determine IC50.
# PatchXpress Nav 1.8 Inhibition Assay
# HEK-Nav1.8 β1/β2 cells were recorded in whole cell patch-clamp using the PatchXpress automated patch clamp platforms (Molecular Devices). Cells suspensions were obtained by trypsinization of adherent monolayers, followed by gentle rocking for minimally 30 min. Compounds were prepared from 10 mM DMSO stocks.
# Nav1.8 channel variants were evaluated using Protocol 1 (FIG. 2) in which cells were initially voltage clamped at a holding potential of −100 mV to maintain Nav1.8 in a closed resting state. After current amplitude becomes stable, the mid-point voltage of steady state inactivation was determined for each cell using a series of 5 sec conditioning steps to increasingly depolarized voltages (−100 to 0 mV) The holding potential was then reset to a voltage that produces ˜50% inactivation (Vhalf−set automatically via PatchXpress scripts) so that closed and inactivated channel inhibition can be assessed. Protocol 1 was run at a frequency of 0.1 Hz until current amplitude is steady (automatically determined by PatchXpress scripts). The effect of test reagent on Nav current amplitude was monitored using custom PatchXpress stability scripts which determines the timing of compound addition and washout. Data were processed and analyzed using DataXpress 2.0 (Molecular Devices). […]
# T1 sequence (Q9Y5Y9 whole entry): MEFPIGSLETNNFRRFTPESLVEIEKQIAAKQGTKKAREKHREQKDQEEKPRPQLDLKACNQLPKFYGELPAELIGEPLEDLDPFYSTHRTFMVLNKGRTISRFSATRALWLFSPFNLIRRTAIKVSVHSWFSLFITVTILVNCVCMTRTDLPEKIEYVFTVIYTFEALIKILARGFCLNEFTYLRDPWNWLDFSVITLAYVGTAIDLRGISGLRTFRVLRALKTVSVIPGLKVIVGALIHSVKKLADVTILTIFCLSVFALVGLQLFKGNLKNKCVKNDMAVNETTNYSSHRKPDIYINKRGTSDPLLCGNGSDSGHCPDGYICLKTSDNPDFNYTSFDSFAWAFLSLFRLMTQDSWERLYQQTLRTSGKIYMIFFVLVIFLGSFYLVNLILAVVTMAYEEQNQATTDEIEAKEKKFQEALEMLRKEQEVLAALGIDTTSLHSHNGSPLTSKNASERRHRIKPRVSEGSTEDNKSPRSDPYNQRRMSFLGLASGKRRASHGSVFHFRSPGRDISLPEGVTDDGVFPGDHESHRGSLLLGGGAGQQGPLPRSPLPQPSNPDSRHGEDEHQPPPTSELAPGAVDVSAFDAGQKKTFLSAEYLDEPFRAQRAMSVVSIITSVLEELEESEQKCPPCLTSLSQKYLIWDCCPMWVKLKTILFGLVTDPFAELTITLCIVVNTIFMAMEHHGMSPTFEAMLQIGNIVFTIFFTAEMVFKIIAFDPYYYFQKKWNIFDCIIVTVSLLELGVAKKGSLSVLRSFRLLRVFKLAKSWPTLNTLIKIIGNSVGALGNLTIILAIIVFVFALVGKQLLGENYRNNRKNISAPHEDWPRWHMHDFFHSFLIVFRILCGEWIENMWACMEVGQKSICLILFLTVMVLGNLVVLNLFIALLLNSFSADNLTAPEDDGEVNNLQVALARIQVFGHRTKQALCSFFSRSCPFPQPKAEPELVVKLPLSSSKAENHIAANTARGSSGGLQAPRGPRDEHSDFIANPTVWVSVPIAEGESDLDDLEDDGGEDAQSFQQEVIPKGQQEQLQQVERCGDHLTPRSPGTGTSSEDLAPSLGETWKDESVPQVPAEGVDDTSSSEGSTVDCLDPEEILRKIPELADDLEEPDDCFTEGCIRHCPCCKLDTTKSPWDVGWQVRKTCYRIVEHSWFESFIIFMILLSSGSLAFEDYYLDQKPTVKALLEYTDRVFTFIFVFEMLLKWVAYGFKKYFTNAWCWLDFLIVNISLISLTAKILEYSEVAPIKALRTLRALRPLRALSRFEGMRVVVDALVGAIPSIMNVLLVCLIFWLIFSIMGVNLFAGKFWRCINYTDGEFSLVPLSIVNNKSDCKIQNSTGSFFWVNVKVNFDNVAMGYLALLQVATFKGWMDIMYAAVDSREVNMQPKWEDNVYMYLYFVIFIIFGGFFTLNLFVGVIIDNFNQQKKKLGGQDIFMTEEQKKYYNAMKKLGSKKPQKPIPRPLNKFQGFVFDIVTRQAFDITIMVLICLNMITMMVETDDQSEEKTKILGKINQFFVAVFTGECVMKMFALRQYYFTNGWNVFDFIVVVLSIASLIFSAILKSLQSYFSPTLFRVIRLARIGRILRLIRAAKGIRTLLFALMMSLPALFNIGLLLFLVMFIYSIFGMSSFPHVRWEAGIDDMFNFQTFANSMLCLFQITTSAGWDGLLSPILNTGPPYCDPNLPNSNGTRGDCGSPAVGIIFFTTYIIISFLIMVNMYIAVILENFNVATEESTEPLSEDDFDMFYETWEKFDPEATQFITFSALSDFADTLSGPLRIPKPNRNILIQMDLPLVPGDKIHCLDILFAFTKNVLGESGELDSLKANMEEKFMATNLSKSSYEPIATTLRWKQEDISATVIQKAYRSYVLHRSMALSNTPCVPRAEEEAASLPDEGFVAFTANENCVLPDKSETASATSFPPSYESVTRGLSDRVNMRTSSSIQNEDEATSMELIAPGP
row,Structure (SMILES),IC50 [µM]
1,"O=C(Nc1ccnnc1)c1cnc(C(F)(F)F)cc1Oc1ccc(OC(F)(F)F)cc1 [Example 96, N-pyridazin-4-yl-4-[4-(trifluoromethoxy)phenoxy]-6-(trifluoromethyl)pyridine-3-carboxamide]",0.5 to 1
2,"COc1cc(NC(=O)c2cc(C(F)(F)F)cnc2Oc2ccc(F)cc2C)ccn1 [Example 109, 2-(4-fluoro-2-methyl-phenoxy)-N-(2-methoxy-4-pyridyl)-5-(trifluoromethyl)pyridine-3-carboxamide]",> 1
3,"CS(=O)(=O)c1cccc(NC(=O)c2cc(C(F)(F)F)cnc2Oc2cc(F)cc(Cl)c2)c1 [Example 45, 2-(3-chloro-5-fluoro-phenoxy)-N-(3-methylsulfonyl-phenyl)-5-(trifluoromethyl)pyridine-3-carboxamide]",> 1
4,"CCCc1ccccc1Oc1ncc(C(F)(F)F)cc1C(=O)Nc1cccc(S(C)(=O)=O)c1 [Example 24, N-(3-methylsulfonylphenyl)-2-(2-propylphenoxy)-5-(trifluoromethyl)pyridine-3-carboxamide]",> 1
5,"O=C(Nc1cccc(F)c1)c1cc(C(F)(F)F)cnc1Oc1ccc(OC(F)(F)F)cc1Cl [Example 163, 2-[2-chloro-4-(trifluoromethoxy)phenoxy]-N-(3-fluorophenyl)-5-(trifluoromethyl)pyridine-3-carboxamide]",> 1
6,"COc1cc(F)ccc1Oc1ncc(OC(F)F)cc1C(=O)Nc1cccc(S(C)(=O)=O)c1 [Example 179, 5-(difluoromethoxy)-2-(4-fluoro-2-methoxy-phenoxy)-N-(3-methylsulfonylphenyl)pyridine-3-carboxamide]",< 0.5
7,"COc1cc(F)ccc1Oc1ncc(C(F)(F)F)cc1C(=O)Nc1ccnc(C)c1 [Example 17, 2-(4-fluoro-2-methoxy-phenoxy)-N-(2-methyl-4-pyridyl)-5-(trifluoromethyl)pyridine-3-carboxamide]",> 1
8,"O=C(Nc1cccc(CO)c1)c1cc(C(F)(F)F)cnc1Oc1ccc(OC(F)(F)F)cc1Cl [Example 160, 2-[2-chloro-4-(trifluoromethoxy)phenoxy]-N-[3-(hydroxymethyl)phenyl]-5-(trifluoromethyl)pyridine-3-carboxamide]",< 0.5
9,"Cc1cc(F)ccc1Oc1cc(C(F)(F)F)ncc1C(=O)Nc1ccc[n+]([O-])c1 [Example 85, 4-(4-fluoro-2-methyl-phenoxy)-N-(1-oxidopyridin-1-ium-3-yl)-6-(trifluoromethyl)pyridine-3-carboxamide]",0.5 to 1
10,"O=C(Nc1ccnnc1)c1cc(C(F)(F)F)cnc1Oc1ccc(OC(F)F)cc1 [Example 64, 2-[4-(difluoromethoxy)phenoxy]-N-pyridazin-4-yl-5-(trifluoromethyl)pyridine-3-carboxamide]",> 1
11,"CCS(=O)(=O)c1cccc(NC(=O)c2cc(C(F)(F)F)cnc2Oc2ccc(OC(F)(F)F)cc2)c1 [Example 125, N-(3-ethylsulfonylphenyl)-2-[4-(trifluoromethoxy)phenoxy]-5-(trifluoromethyl)pyridine-3-carboxamide]",< 0.5
12,"CS(=O)(=O)c1cccc(NC(=O)c2cc(C(F)(F)F)cnc2Oc2cc(F)cc(F)c2)c1 [Example 49, 2-(3,5-difluorophenoxy)-N-(3-methylsulfonyl-phenyl)-5-(trifluoromethyl)pyridine-3-carboxamide]",> 1
13,"O=C(Nc1ccnnc1)c1cc(C(F)(F)F)cnc1Oc1ccc(OC(F)(F)F)cc1Cl [Example 161, 2-[2-chloro-4-(trifluoromethoxy)phenoxy]-N-pyridazin-4-yl-5-(trifluoromethyl)pyridine-3-carboxamide]",< 0.5
14,"COc1cc(F)ccc1Oc1ncc(C(F)(F)F)cc1C(=O)Nc1nc2ccccc2s1 [Example 11, N-(1,3-benzothiazol-2-yl)-2-(4-fluoro-2-methoxy-phenoxy)-5-(trifluoromethyl)pyridine-3-carboxamide]",> 1
15,"O=C(Nc1ccc[n+]([O-])c1)c1cnc(C(F)(F)F)cc1Oc1ccc(OC(F)F)cc1 [Example 86, 4-[4-(difluoromethoxy)phenoxy]-N-(1-oxidopyridin-1-ium-3-yl)-6-(trifluoromethyl)pyridine-3-carboxamide]",0.5 to 1
16,"COc1ccc(Oc2ncc(C(F)(F)F)cc2C(=O)Nc2cccc(S(C)(=N)=O)c2)c(OC)c1 (stereo not drawn) [Example 172, 2-(2,4-dimethoxyphenoxy)-N-[3(methylsulfonimidoyl)phenyl]-5-(trifluoromethyl)pyridine-3-carboxamide]",< 0.5
17,"COc1cc(F)ccc1Oc1nc(C)ccc1C(=O)Nc1cccc(S(C)(=O)=O)c1 [Example 117, 2-(4-fluoro-2-methoxy-phenoxy)-6-methyl-N-(3-methylsulfonylphenyl)pyridine-3-carboxamide]",> 1
18,"O=C(Nc1ccc[n+]([O-])c1)c1cnc(C(F)(F)F)cc1Oc1ccc(OC(F)(F)F)cc1Cl [Example 83, 4-[2-chloro-4-(trifluoromethoxy)phenoxy]-N-(1-oxidopyridin-1-ium-3-yl)-6-(trifluoromethyl)pyridine-3-carboxamide]",< 0.5
19,"COc1ccc(Oc2cc(C(F)(F)F)ncc2C(=O)Nc2cccc(S(C)(=N)=O)c2)c(OC)c1 (stereo not drawn) [Example 102, 4-(2,4-dimethoxyphenoxy)-N-[3-(methylsulfonimidoyl)phenyl]-6-(trifluoromethyl)pyridine-3-carboxamide]",> 1
20,"CS(C)(=O)=Nc1cccc(NC(=O)c2cc(C(F)(F)F)cnc2Oc2ccc(OC(F)(F)F)cc2)c1 [Example 129, N-[3-[[dimethyl(oxo)-λ^6-sulfanylidene]amino]phenyl]-2-[4-(trifluoromethoxy)phenoxy]-5-(trifluoromethyl)pyridine-3-carboxamide]",> 1
21,"COc1cc(F)ccc1Oc1ncc(C(F)(F)F)cc1C(=O)Nc1cccc(-c2cnco2)c1 [Example 9, 2-(4-fluoro-2-methoxy-phenoxy)-N-(3-oxazol-5-ylphenyl)-5-(trifluoromethyl)pyridine-3-carboxamide]",> 1
22,"COc1cc(F)ccc1Oc1nc2c(cc1C(=O)Nc1cccc(S(C)(=O)=O)c1)CCC2 [Example 120, 2-(4-fluoro-2-methoxy-phenoxy)-N-(3-methylsulfonylphenyl)-6,7-dihydro-5H-cyclopenta[b]pyridine-3-carboxamide]",< 0.5
23,"CS(=N)(=O)c1cccc(NC(=O)c2cnc(C(F)(F)F)cc2Oc2ccc(F)cc2F)c1 (stereo not drawn) [Example 103, 4-(2,4-difluorophenoxy)-N-[3-(methylsulfonimidoyl)phenyl]-6-(trifluoromethyl)pyridine-3-carboxamide]",> 1
24,"O=C(Nc1ccnnc1)c1cc(C(F)(F)F)cnc1Oc1ccc(F)cc1F [Example 176, 2-(2,4-difluorophenoxy)-N-pyridazin-4-yl-5-(trifluoromethyl)pyridine-3-carboxamide]",> 1
25,"CS(=N)(=O)c1cccc(NC(=O)c2cc(C(F)(F)F)cnc2Oc2ccc(OC(F)(F)F)cc2)c1 (stereo not drawn) [Example 123, N-[3-(methylsulfonimidoyl)phenyl]-2-[4-(trifluoromethoxy)phenoxy]-5-(trifluoromethyl)pyridine-3-carboxamide]",< 0.5
26,"COc1ccc(Oc2ncc(C(F)(F)F)cc2C(=O)Nc2ccnnc2)c(Cl)c1 [Example 65, 2-(2-chloro-4-methoxy-phenoxy)-N-pyridazin-4-yl-5-(trifluoromethyl)pyridine-3-carboxamide]",> 1
27,"Cn1nccc1NC(=O)c1cc(C(F)(F)F)cnc1Oc1ccc(OC(F)(F)F)cc1Cl [Example 167, 2-[2-chloro-4-(trifluoromethoxy)phenoxy]-N-(2-methylpyrazol-3-yl)-5-(trifluoromethyl)pyridine-3-carboxamide]",0.5 to 1
